Measured values reported in PubChem BioAssay (NCI).
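96-well plates; 48 h exposure; 5 concentrations. Endpoints by linear interpolation between flanking doses. Not reached: highest tested concentration assigned. GI50 marks 50% less growth. TGI: total growth inhibition.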

Assays:
Experiment in all cases: growth of human tumour cells (NCI), 48 h
LOX IMVI melanoma = test system: LOX IMVI melanoma
HCT-116 colon = test system: HCT-116 colon
MDA-MB-435 = test system: MDA-MB-435
NCI-H460 lung = test system: NCI-H460 lung
SF-268 CNS = test system: SF-268 CNS
786-0 renal = test system: 786-0 renal
MCF7 breast = test system: MCF7 breast
NCI-H23 lung = test system: NCI-H23 lung
UACC-257 melanoma = test system: UACC-257 melanoma
UACC-62 melanoma = test system: UACC-62 melanoma
RXF 393 renal = test system: RXF 393 renal
PC-3 prostate = test system: PC-3 prostate
RPMI-8226 leukemia = test system: RPMI-8226 leukemia
TK-10 renal = test system: TK-10 renal
U251 CNS = test system: U251 CNS
HOP-62 NSCLC = test system: HOP-62 NSCLC
OVCAR-3 ovarian = test system: OVCAR-3 ovarian
SK-MEL-2 melanoma = test system: SK-MEL-2 melanoma
BT-549 breast = test system: BT-549 breast
OVCAR-5 ovarian = test system: OVCAR-5 ovarian
A549 NSCLC = test system: A549 NSCLC
SK-OV-3 ovarian = test system: SK-OV-3 ovarian
HL-60(TB) leukemia = test system: HL-60(TB) leukemia
MDA-MB-231 breast = test system: MDA-MB-231 breast
HCC-2998 colon = test system: HCC-2998 colon
T-47D breast = test system: T-47D breast
A498 renal = test system: A498 renal
HOP-92 NSCLC = test system: HOP-92 NSCLC
SF-295 CNS = test system: SF-295 CNS
M14 melanoma = test system: M14 melanoma
OVCAR-8 ovarian = test system: OVCAR-8 ovarian
HT29 colon = test system: HT29 colon
NCI-H226 lung = test system: NCI-H226 lung
K-562 leukemia = test system: K-562 leukemia
ACHN renal = test system: ACHN renal
SF-539 CNS = test system: SF-539 CNS
MOLT-4 leukemia = test system: MOLT-4 leukemia
DU-145 prostate = test system: DU-145 prostate
CCRF-CEM leukemia = test system: CCRF-CEM leukemia
MALME-3M melanoma = test system: MALME-3M melanoma
SNB-75 CNS = test system: SNB-75 CNS
SK-MEL-28 melanoma = test system: SK-MEL-28 melanoma
SK-MEL-5 melanoma = test system: SK-MEL-5 melanoma
KM12 colon = test system: KM12 colon
EKVX NSCLC = test system: EKVX NSCLC
UO-31 renal = test system: UO-31 renal
HS 578T breast = test system: HS 578T breast
HCT-15 colon = test system: HCT-15 colon
OVCAR-4 ovarian = test system: OVCAR-4 ovarian
SW-620 colon = test system: SW-620 colon
CAKI-1 renal = test system: CAKI-1 renal
SR leukemia = test system: SR leukemia
COLO 205 colon = test system: COLO 205 colon
IGROV1 ovarian = test system: IGROV1 ovarian
NCI/ADR-RES ovarian = test system: NCI/ADR-RES ovarian
SN12C renal = test system: SN12C renal
NCI-H522 lung = test system: NCI-H522 lung
SNB-19 CNS = test system: SNB-19 CNS

SMILES: COc1ccc(SC2c3ccc(C)cc3Oc3nc(N)c(C#N)c(N)c32)cc1 (stereo unspecified)
- GI50 (LOX IMVI melanoma): 1.6 µM
- TGI (LOX IMVI melanoma): 3.11 µM
- GI50 (HCT-116 colon): 1.82 µM
- TGI (HCT-116 colon): 3.37 µM
- GI50 (MDA-MB-435): 1.69 µM
- TGI (MDA-MB-435): 3.16 µM
- GI50 (NCI-H460 lung): 2.13 µM
- TGI (NCI-H460 lung): 4.36 µM
- GI50 (SF-268 CNS): 1.62 µM
- TGI (SF-268 CNS): 3.04 µM
- GI50 (786-0 renal): 1.65 µM
- TGI (786-0 renal): 3.01 µM
- GI50 (MCF7 breast): 1.95 µM
- TGI (MCF7 breast): 4.72 µM
- GI50 (NCI-H23 lung): 1.67 µM
- TGI (NCI-H23 lung): 3.31 µM
- GI50 (UACC-257 melanoma): 1.99 µM
- TGI (UACC-257 melanoma): 3.49 µM
- GI50 (UACC-62 melanoma): 1.6 µM
- TGI (UACC-62 melanoma): 2.99 µM
- GI50 (RXF 393 renal): 1.65 µM
- TGI (RXF 393 renal): 3.01 µM
- GI50 (PC-3 prostate): 1.6 µM
- TGI (PC-3 prostate): 3.11 µM
- GI50 (RPMI-8226 leukemia): 2.47 µM
- TGI (RPMI-8226 leukemia): 6.56 µM
- GI50 (TK-10 renal): 1.74 µM
- TGI (TK-10 renal): 3.12 µM
- GI50 (U251 CNS): 1.81 µM
- TGI (U251 CNS): 3.22 µM
- GI50 (HOP-62 NSCLC): 1.71 µM
- TGI (HOP-62 NSCLC): 3.18 µM
- GI50 (OVCAR-3 ovarian): 1.75 µM
- TGI (OVCAR-3 ovarian): 3.13 µM
- GI50 (SK-MEL-2 melanoma): 1.72 µM
- TGI (SK-MEL-2 melanoma): 3.59 µM
- GI50 (BT-549 breast): 1.56 µM
- TGI (BT-549 breast): 2.9 µM
- GI50 (OVCAR-5 ovarian): 1.74 µM
- TGI (OVCAR-5 ovarian): 3.35 µM
- GI50 (A549 NSCLC): 2.19 µM
- TGI (A549 NSCLC): 4.21 µM
- GI50 (SK-OV-3 ovarian): 1.78 µM
- TGI (SK-OV-3 ovarian): 3.17 µM
- GI50 (HL-60(TB) leukemia): 1.86 µM
- TGI (HL-60(TB) leukemia): 3.99 µM
- GI50 (MDA-MB-231 breast): 1.81 µM
- TGI (MDA-MB-231 breast): 3.28 µM
- GI50 (HCC-2998 colon): 1.73 µM
- TGI (HCC-2998 colon): 3.19 µM
- GI50 (T-47D breast): 1.9 µM
- TGI (T-47D breast): 4.63 µM
- GI50 (A498 renal): 1.91 µM
- TGI (A498 renal): 3.44 µM
- GI50 (HOP-92 NSCLC): 1.84 µM
- TGI (HOP-92 NSCLC): 3.55 µM
- GI50 (SF-295 CNS): 1.55 µM
- TGI (SF-295 CNS): 2.89 µM
- GI50 (M14 melanoma): 1.76 µM
- TGI (M14 melanoma): 3.41 µM
- GI50 (OVCAR-8 ovarian): 1.64 µM
- TGI (OVCAR-8 ovarian): 3.06 µM
- GI50 (HT29 colon): 2.31 µM
- TGI (HT29 colon): 4.83 µM
- GI50 (NCI-H226 lung): 1.75 µM
- TGI (NCI-H226 lung): 3.22 µM
- GI50 (K-562 leukemia): 2.66 µM
- TGI (K-562 leukemia): 8.44 µM
- GI50 (ACHN renal): 1.76 µM
- TGI (ACHN renal): 3.15 µM
- GI50 (SF-539 CNS): 1.64 µM
- TGI (SF-539 CNS): 3 µM
- GI50 (MOLT-4 leukemia): 1.96 µM
- TGI (MOLT-4 leukemia): 5.61 µM
- GI50 (DU-145 prostate): 1.82 µM
- TGI (DU-145 prostate): 3.21 µM
- GI50 (CCRF-CEM leukemia): 2.85 µM
- TGI (CCRF-CEM leukemia): 7.67 µM
- GI50 (MALME-3M melanoma): 1.68 µM
- TGI (MALME-3M melanoma): 3.13 µM
- GI50 (SNB-75 CNS): 1.46 µM
- TGI (SNB-75 CNS): 3.21 µM
- GI50 (SK-MEL-28 melanoma): 1.75 µM
- TGI (SK-MEL-28 melanoma): 3.2 µM
- GI50 (SK-MEL-5 melanoma): 1.77 µM
- TGI (SK-MEL-5 melanoma): 3.15 µM
- GI50 (KM12 colon): 1.61 µM
- TGI (KM12 colon): 3.05 µM
- GI50 (EKVX NSCLC): 1.73 µM
- TGI (EKVX NSCLC): 3.2 µM
- GI50 (UO-31 renal): 1.39 µM
- TGI (UO-31 renal): 2.68 µM
- GI50 (HS 578T breast): 2.27 µM
- TGI (HS 578T breast): 5.54 µM
- GI50 (HCT-15 colon): 1.72 µM
- TGI (HCT-15 colon): 3.3 µM
- GI50 (OVCAR-4 ovarian): 1.66 µM
- TGI (OVCAR-4 ovarian): 3.15 µM
- GI50 (SW-620 colon): 1.95 µM
- TGI (SW-620 colon): 4.08 µM

SMILES: CC(C)(C)NCCC(O)c1cc2c(Cl)cc(Cl)cc2c2cc(C(F)(F)F)ccc12 (stereo unspecified)
- GI50 (DU-145 prostate): 1.97 µM
- TGI (DU-145 prostate): 3.5 µM

SMILES: CC1(C)OCC(COC(=O)NCn2cc(-c3ccccc3)nn2)O1 (stereo unspecified)
- TGI (LOX IMVI melanoma): > 100 µM
- TGI (HCT-116 colon): > 100 µM
- TGI (CAKI-1 renal): > 100 µM
- TGI (NCI-H460 lung): > 100 µM
- TGI (SF-268 CNS): > 100 µM
- TGI (786-0 renal): > 100 µM
- TGI (MCF7 breast): > 100 µM
- TGI (NCI-H23 lung): > 100 µM
- TGI (SR leukemia): > 100 µM
- TGI (UACC-257 melanoma): > 100 µM
- TGI (PC-3 prostate): > 100 µM
- TGI (RPMI-8226 leukemia): > 100 µM
- TGI (TK-10 renal): > 100 µM
- TGI (COLO 205 colon): > 100 µM
- TGI (U251 CNS): > 100 µM
- TGI (HOP-62 NSCLC): > 100 µM
- TGI (SK-MEL-2 melanoma): > 100 µM
- TGI (BT-549 breast): > 100 µM
- TGI (OVCAR-5 ovarian): > 100 µM
- TGI (A549 NSCLC): > 100 µM
- TGI (HL-60(TB) leukemia): > 100 µM
- TGI (IGROV1 ovarian): > 100 µM
- TGI (MDA-MB-231 breast): > 100 µM
- TGI (HCC-2998 colon): > 100 µM
- TGI (HOP-92 NSCLC): > 100 µM
- TGI (SF-295 CNS): > 100 µM
- TGI (M14 melanoma): > 100 µM
- TGI (OVCAR-8 ovarian): > 100 µM
- TGI (HT29 colon): > 100 µM
- TGI (NCI-H226 lung): > 100 µM
- TGI (NCI/ADR-RES ovarian): > 100 µM
- TGI (K-562 leukemia): > 100 µM
- TGI (ACHN renal): > 100 µM
- TGI (SF-539 CNS): > 100 µM
- TGI (MOLT-4 leukemia): > 100 µM
- TGI (SN12C renal): > 100 µM
- TGI (DU-145 prostate): > 100 µM
- TGI (NCI-H522 lung): > 100 µM
- TGI (SNB-19 CNS): > 100 µM
- TGI (CCRF-CEM leukemia): > 100 µM
- TGI (MALME-3M melanoma): > 100 µM
- TGI (SNB-75 CNS): > 100 µM
- TGI (SK-MEL-28 melanoma): > 100 µM
- TGI (SK-MEL-5 melanoma): > 100 µM
- TGI (KM12 colon): > 100 µM
- TGI (EKVX NSCLC): > 100 µM
- TGI (HCT-15 colon): > 100 µM
- TGI (OVCAR-4 ovarian): > 100 µM
- TGI (SW-620 colon): > 100 µM
